{
  "source": "paper PMC10861593",
  "about": "“Kisspeptin-10 binding to Gpr54 in osteoclasts prevents bone loss by activating Dusp18-mediated dephosphorylation of Src” (Nature Communications, 2024)",
  "molecules": {"B1": {"name": "DUSP18: full-length WT human DUSP18 (protein, UniProt Q8NEJ0 1-188, looked up)", "chain": "MTAPSCAFPVQFRQPSVSGLSQITKSLYISNGVAANNKLMLSSNQITMVINVSVEVVNTLYEDIQYMQVPVADSPNSRLCDFFDPIADHIHSVEMKQGRTLLHCAAGVSRSAALCLAYLMKYHAMSLLDAHTWTKSCRPIIRPNSGFWEQLIHYEFQLFGKNTVHMVSSPVGMIPDIYEKEVRLMIPL", "modifications": "full-length His tag"}},
  "key": {"OVX mice": {"system": "OVX mice", "assay": "OVX-induced bone loss model (and sham-operated mice)", "type": "in vivo, mouse", "from_the_text": "Fig. 7 Kp-10 ameliorated OVX-induced bone loss. a, c Representative micro-CT images of femoral trabecular bone (a) and cortical bone (c). Female C57 mice treated with vehicle (Sham) or 50 nmol/kg (DSS)*6-Kp-10, ovariectomized mice (OVX) treated with vehicle or 50nmol/kg (DSS)*6-Kp-10 twice one week by intraperitoneal injection (n = 6 per group). Scale bar, 500 µm. b, d Parameter analysis of femurs from the mice above. BMD bone mineral density, BV/TV bone volume as a fraction of total bone volume, Tb.Th trabecular thickness, Tb.N trabecular number, Tb.Sp trabecular separation. e Representative TRAP staining images of femurs from Fig. 7a. f Histomorphometry analysis of the femurs from Fig. 7a. Oc.S/BS osteoclast surface per bone surface, N.Oc/B.Pm osteoclast bone surface density, ES/BS eroded surface per bone surface. Data represent means ± SEM. P values were determined by one-way ANOVA analysis (b, d, f). Representative results were obtained from at least three independent experiments. Source data are provided as a Source Data file.\n3D micro-CT analyses were performed as previously described. We scanned the femur using in vitro X-ray microtomography (Skyscan 1272, Bruker micro CT) at a pixel size of 9 µm, and analyzed the results according to the manufacturer’s instructions. Region-of-interest (ROI) was defined from 10 to 110 image slices, where the growth plate slice was defined as 0 mm. The contrast was defined from 68–255; 3D analysis, BMD, and 3D models were analyzed using CTAn software (Bruker micro CT). 3D models were adjusted in CT Vox software (Bruker micro CT).\nBone tissue was removed of excess tissues and fixed with 4% formalin, decalcified with 0.5 M EDTA for 10–14 days, embedded with paraffin, sectioned, and stained using the TRAP staining kit (Sigma-Aldrich, 387A-1KT). The third lumbar spine vertebrae (L3) were fixed with 4% formalin, sectioned, and subjected to Von Kossa staining as described previously[60],[61]. For double calcian labeling assay, 4−5 week-old mice were administrated calcian (30 μg/mL) through intraperitoneal injection for the first time and the second time after 10 days. The third lumbar spine vertebrae (L3) were fixed with 4% formalin, sectioned, and subjected to Goldner’s Masson trichrome staining, or acquisition of fluorescence images. Histomorphometric measurements were made using the OsteoMeasure Analysis System (Osteometrics, Atlanta, GA, USA) according to standard criteria.\nFor animal studies in vivo, mice were randomized for weight. For the OVX-induced bone loss model, 2-month-old female C57BL/6 mice were sham-operated (sham) or ovariectomized (OVX) and randomly divided into indicated groups. Vehicle, Kp-10 or (DSS)*6-Kp-10 was injected into the tail vein twice per week. After two months of treatment, the femurs and the L3 lumbrae were isolated for micro-CT or histomorphometric analysis. 3D micro-CT analyses were performed according to a standard protocol. BMD and bone volume were analyzed by CT-analysis software (CTAn, Bruker micro CT, Kontich, Belgium) and images were reconstituted by CT-volume software (CTvol, skyscan, CTAn, Bruker micro CT, Kontich, Belgium).\nSupplementary Fig. 16 a Representative image of Von Kossa staining of sham-operated female C57 mice treated with vehicle (Sham, n=4), ovariectomized mice (OVX, n=3), and OVX mice treatment with 1 nmol/kg Kp-10 (n=6),10 nmol/kg Kp-10 (n=6),1 nmol/kg (DSS)*6-Kp-10 (n=5) or 10 nmol/kg (DSS)*6-Kp-10 (n=6) twice one week by intraperitoneal injection for two months. […]"}, "FSH and LH": {"system": "FSH and LH", "assay": "Elisa of serum FSH and LH", "type": "in vivo, mouse", "settings": "10 nmol/kg twice per week for two months, versus vehicle; n = 6 per group", "from_the_text": "Supplementary Fig. 16 a Representative image of Von Kossa staining of sham-operated female C57 mice treated with vehicle (Sham, n=4), ovariectomized mice (OVX, n=3), and OVX mice treatment with 1 nmol/kg Kp-10 (n=6),10 nmol/kg Kp-10 (n=6),1 nmol/kg (DSS)*6-Kp-10 (n=5) or 10 nmol/kg (DSS)*6-Kp-10 (n=6) twice one week by intraperitoneal injection for two months. […] BV/TV, bone volume as a fraction of total bone volume; Tb. Th, trabecular thickness; Tb. Sp, trabecular separation; Tb. N, trabecular number. c Elisa assay showing LH, FSH derived from the serum of sham-operated female C57 mice treated with vehicle (Sham+ vehicle) or 10 nmol/kg (DSS)*6-Kp-10 (Sham+10 nmol/kg Kp-10), ovariectomized mice treated with vehicle (OVX+ vehicle) or 10 nmol/kg (DSS)*6-Kp-10 (OVX+ 10 nmol/kg Kp-10) twice one week by intraperitoneal injection for two months. n=6 per group. Error bars are ± SEM. P-values were determined by two-way ANOVA analysis (b, c) ***P <0.001, ****P <0.0001. “ns” means no significant difference. Representative results were observed from at least three independent experiments. Source data are provided as a Source Data file."}, "Dusp18 knockout mice": {"system": "Dusp18 knockout mice", "assay": "bone and osteoclast parameters in Dusp18 knockout mice", "type": "in vivo, mouse", "settings": "femur", "from_the_text": "Data represent means ± SEM. […] Representative results were obtained from at least three independent experiments. Source data are provided as a Source Data file."}, "[1]": {"settings": "cited from earlier work", "from_the_text": "(§1) Bone targeting Kp-10 ([…] D-Tyr–Asn-(D-Trp)-Asn-Ser-Phe-(azaGly)-Leu-Arg (Me)-Phe-NH2) was designed using six repetitive sequences of aspartate, serine, and serine, which is a bone surface-targeting delivery system as previously described."}, "GPR54": {"system": "GPR54", "parameters": "method as in PMID 22975302", "settings": "cited from earlier work", "from_the_text": "as §1"}, "GPR54 CT [2]": {"system": "GPR54 CT", "assay": "GST pull-down / Co-IP of GPR54 CT with DUSP18, PTPN6 and PPP1CA", "type": "binding, human", "settings": "293T WCL, DUSP18-Flag, PPP1CA-Flag or PTPN6-Flag", "protocol": "Supplementary Fig. 3 a, b SPR binding analysis showing the binding affinity of Src and human GPR54^336-356 peptide (a), Src and human GPR54 ^333-344 peptide (b). c, d Anti-Flag IP derived from 293T cells transfected with HA-Src and GPR54-Flag constructs with Kp-10 (10 nM) stimulation (c) and quantification of protein levels (d). e. e IF staining was carried out using pre-osteoclasts differentiated from BMMs in the presence of M-CSF (10 ng/ml) and RANKL (50 ng/ml) for 2 days. Representative images were shown by TIRF microscopy. f, g IB analysis of total samples and GST pull-downs using GST proteins including GST, GST-GPR54 CT incubated separately with WCL of 293T cells transfected with DUSP18-flag, PPP1CA-Flag or PTPN6-Flag (f), and quantification of protein levels (g). Error bars are ± SEM. P-values were determined by two-tailed Student’s t-test (d) or one-way ANOVA analysis (g). *P <0.05, Representative results were observed from at least three independent experiments. Source data are provided as a Source Data file."}, "Src (Y416)": {"system": "Src (Y416)", "assay": "in vitro phosphatase activity assay with Src", "type": "biochemical, human", "settings": "purified proteins; 30 min at 30 °C; Western blot", "protocol": "The C terminus of human GPR54 (H329- L398) and mouse Gpr54 (R331- L396) cDNAs were subcloned into a pGEX-4T2 vector. For purification of full-length WT human DUSP18 and DUSP18 (C104S) proteins, DUSP18 was cloned into pMCSG7 vector. For purification of Src (G85-L536) protein, cDNAs of human Src were subcloned into pFastBac HT B vector with an N-terminal 6xHis tag and expressed in Sf9 cells (Expression Systems) using the Bac-to-Bac Baculovirus Expression System (Invitrogen) for 48 h. For purification of the Src (G85-V247)-GPR54 (333–356 with C338S, C340S mutation) recombinant fusion protein, the C-terminus of GPR54 (333–356 with C338S and C340S mutation) was linked to the C terminus of Src SH3-SH2 domain (G85-V247), which was subcloned into the pMCSG7 vector.\nFor the total phosphatase activity assay, the Co-IP experiment was carried out after Kp-10 treatment of RAW264.7 cells for 20 min, followed by lysis and incubation with the Gpr54 antibody. The assay was performed according to the phosphatase assay kit (Sigma-Aldrich,17-313). For the DUSP18 phosphatase activity assay, His-DUSP18 and His-DUSP18 (C104S) were purified from E Coli, and His-Src was purified from Sf9 insect cells. His-DUSP18 and His-DUSP18 (C104S) were incubated with His-Src in 1x phosphatase buffer (20 mM HEPES, 20 mM MgCl2, 0.03% β-mercaptoethanol)[51] for 30 min at 30 °C with gentle shaking. […]"}, "GPR54 CT [3]": {"system": "GPR54 CT", "assay": "competitive pull-down assay, His-SRC and His-DUSP18 with GST-GPR54 CT", "type": "binding, human", "settings": "His-SRC 0 or 0.1 μg, His-DUSP18 0, 0.1 or 0.2 μg", "protocol": "Beads were analyzed by phosphatase activity assay (a), mass spectrometry assay (b), IB analysis (c) and quantification of protein levels (d). e, f Protein co-localization was analyzed by IF staining in primary pre-osteoclast with 10 nM Kp-10 treatment for 20 min. […] Scale bar, 50 µm. g, h binding affinity was measured by SPR binding analysis. […] Data represent means ± SEM. P values were determined by one-way ANOVA analysis (a, d, j, l) or two-tailed Student’s t-test (f). Representative results were obtained from at least three independent experiments. Source data are provided as a Source Data file."}},
  "note": "“Also recorded” adds a separate entry of the source. Where no end group is shown, it is not given here. [ ]: non-standard residue; d: D form. azaGly = NNC(=O)O",
  "data": [
    {"molecule": "DSSDSSDSSDSSDSSDSS[dY]N[dW]NSF[azaGly]LR(Me)F-NH2 [(DSS)*6-Kp-10]", "values": [
      {"measurement": "bone mass, 50 nmol/kg, sham and OVX mice", "setting": "OVX mice; 50 nmol/kg twice per week, micro-CT, femur, n = 6 per group", "result": "bone mass increased"},
      {"measurement": "osteoclast activation, 50 nmol/kg, sham and OVX mice", "setting": "OVX mice; 50 nmol/kg twice per week, TRAP staining, Oc.S/BS, N.Oc/B.Pm, ES/BS, n = 6 per group", "result": "suppressed osteoclast activation both in sham-operated and OVX mice"},
      {"measurement": "bone protective effect versus Kp-10", "setting": "OVX mice; OVX mice, 1 or 10 nmol/kg twice per week for two months, Von Kossa staining, trabecular bone parameters", "result": "rescued OVX induced bone loss more effectively than Kp-10; also recorded: showed better bone protective effect; also recorded: showed better effects than Kp-10 on bone protection"},
      {"measurement": "bone loss / bone protection in vivo (summary statement)", "setting": "OVX mice; in vivo, OVX-induced bone loss model", "result": "showed bone protection in the OVX-induced bone loss model by inhibiting osteoclast activity; also recorded: protects against bone loss"},
      {"measurement": "serum FSH and LH, sham and OVX mice", "setting": "FSH and LH", "result": "same level of FSH and LH"},
      {"measurement": "rescue of Dusp18 deletion induced osteoclast activity", "setting": "Dusp18 knockout mice; TRAP staining and osteoclast parameters", "result": "not by (DSS)*6-KP-10"},
      {"measurement": "rescue of Dusp18 deletion induced bone mass change", "setting": "Dusp18 knockout mice; micro-CT and bone parameters, n = 5", "result": "not by (DSS)*6-KP-10"}
    ]},
    {"molecule": "D-Tyr–Asn-(D-Trp)-Asn-Ser-Phe-(azaGly)-Leu-Arg (Me)-Phe-NH2 [Modified Kp-10, Modified Kp-10 designed as previously described]", "values": [
      {"measurement": "metabolic stability", "setting": "[1]", "result": "high metabolic stability"},
      {"measurement": "GPR54 agonistic activity", "setting": "GPR54", "result": "excellent GPR54 agonistic activity"}
    ]},
    {"molecule": "B1", "values": [
      {"measurement": "interaction with GPR54 among DUSP18, PTPN6 and PPP1CA", "setting": "GPR54 CT [2]", "result": "had the strongest interaction with GPR54"},
      {"measurement": "dephosphorylation of Src (Y416)", "setting": "Src (Y416)", "result": "potently reduced the phosphorylation of Src (Y416)"},
      {"measurement": "competition with Src for binding to GPR54 CT", "setting": "GPR54 CT [3]", "result": "competed with Src for binding to GPR54 CT"}
    ]}
  ]
}
